The target of this test is T1, CNR2 (Homo sapiens, UniProt P34972).
T1 construct: purchased Promega (in-house HiBiT-GPCR construct library, NanoBRET)
Briefly: NanoBRET screen HiBiT-CNR2 in HEK293. Type of test: binding. As to the method:
Each tracer candidate was screened across the entire library of HiBiT-GPCR constructs using NanoBRET as the detection modality. As depicted in Figure 4A, the specificity of interactions was evaluated through decrease in BRET due to competitive displacement of a bound tracer by excess parental compound. Each tracer was analyzed for binding to each HiBiT-GPCR fusion in the absence and in the presence of competing parental compound. Briefly, HEK293 cells were transfected with HiBiT-GPCR constructs diluted into promoterless DNA to reduce expression and maximize translocation to the cell surface. Each tracer candidate was then screened at concentrations of 1 μM and 0.1 μM across cells expressing these fusions. Cells were treated for 1.5 h with tracer either alone or in the presence of 20 μM competing parental compound (i.e., control). BRET was measured upon addition of purified LgBiT and subsequent complementation with HiBiT genetically fused to a GPCR. The specificity of interactions was assessed through a decrease in BRET signal due to competitive displacement of the bound tracer. To further gauge the robustness of these interactions, the fold response over the control (i.e., BRETtracer/BRETcontrol) was calculated. We chose a 1.5-fold response, which translates to ≥7-fold signal over noise as the minimal threshold required to score an interaction as positive.
HiBiT-GPCR DNA constructs were diluted in 10 mM Tris pH 8 to a final concentration of 0.01 μg/μL, arrayed in 96-well plates and stored at −20 °C. For transfection, HEK293 cells were suspended in Opti-MEM (without phenol red) supplemented with 2% fetal bovine serum (Seradigm) and 100 units/mL penicillin–streptomycin (Gibco) at a final concentration of 220,000 cells/mL and dispensed into white 96-well plates at 90 μL/well. Subsequent transfections and screens were carried using an Agilent Bravo Automated Liquid Handling Platform. First, the 96-well HiBiT DNA arrays were diluted 25-fold in Opti-MEM (without serum or phenol red) to a final concentration of 0.0004 μg/μL and 20 μL of the diluted DNAs were transferred into new 96-well plates. Next, promoterless carrier DNA (1 μg/μL) was diluted 25-fold (0.04 μg/μL) and then dispensed into the diluted arrays at 20 μL/well. Following brief mixing, Viafect transfection reagent (Promega) diluted 16-fold into Opti-MEM was dispensed into the plates at 40 μL/well. After mixing by pipetting, plates were incubated for 10 min on the pipetting station deck. The DNA-transfection reagent complexes were then added to plates containing cells. To facilitate the screen, 10 μL of DNA-transfection reagent complexes were added in duplicates to the top 4 and bottom 4 rows, resulting in two identical 48-well arrays per plate. Plates with transfected cells were incubated for 18–20 h at 37 °C/5% CO2. A screen of each tracer across the entire library using two different concentrations requires duplicate plates of transfected cells. Depending on the number of tracers being screened, transfections can be scaled up using the same ratios. The next day, for each tracer, four 20× screening solutions in tracer dilution buffer (Promega) were prepared: two duplicates at final concentration of 20 μM and two duplicates at a final concentration of 2 μM. […] The four resulting solutions were diluted 4-fold in Opti-MEM without serum or phenol red to generate 5× solutions (5 µM and 0.5 µM tracer +/− 100 μM competing compound). To screen the library, a BioTek MultiFlo FX liquid dispenser was used to dispense 22.5 µL of tracer solution to the top 4 rows and 22.5 µL tracer + competing compound solution to the 4 bottom rows. Plates were briefly mixed on an orbital shaker and incubated for 1.5 h at room temperature. […] Plates were briefly mixed on an orbital shaker and incubated for 15 min to allow complementation.
Background: Bioluminescence resonance energy transfer reports proximity on the nanometre scale.

T1 sequence (P34972 whole entry): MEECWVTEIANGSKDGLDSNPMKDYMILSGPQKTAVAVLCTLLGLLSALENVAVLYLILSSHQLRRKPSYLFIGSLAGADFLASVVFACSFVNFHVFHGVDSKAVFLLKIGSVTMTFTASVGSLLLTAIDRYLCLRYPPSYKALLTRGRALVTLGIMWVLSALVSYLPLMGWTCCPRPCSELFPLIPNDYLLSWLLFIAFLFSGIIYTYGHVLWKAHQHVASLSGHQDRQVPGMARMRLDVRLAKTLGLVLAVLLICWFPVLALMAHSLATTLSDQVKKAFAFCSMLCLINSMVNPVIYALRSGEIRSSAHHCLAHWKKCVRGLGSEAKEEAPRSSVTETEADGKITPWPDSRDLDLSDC

For `O=C(CCOCCOCCOCCOCCNC(=O)CCc1ccc2n1[B-](F)(F)[N+]1=C(c3ccc[nH]3)C=CC1=C2)NCCCN1CCN(C2=Nc3ccccc3Oc3ccc(Cl)cc32)CC1` [Loxapine-a-2-NB590], the “NanoBRET Fold Response” value is, setting by setting: (CNR2, tracer 0.1μM) 0.33; (CNR2, tracer 1μM) 1.25.

For the compound `CCCn1c(=O)c2[nH]c(-c3ccc(OCC(=O)NCCNC(=O)CCOCCNC(=O)c4ccc(CNC(=O)CCc5ccc6n5[B-](F)(F)[N+]5=C(c7ccc[nH]7)C=CC5=C6)cc4)cc3)nc2n(CCC)c1=O` [XAC-3-NB590], the “NanoBRET Fold Response” value is, setting by setting: (CNR2, tracer 0.1μM) 1.04; (CNR2, tracer 1μM) 1.09.

Take `COc1ccccc1N1CCN(CCCCN2C(=O)c3ccc(CNC(=O)CCOCCOCCOCCOCCNC(=O)CCc4ccc5n4[B-](F)(F)[N+]4=C(c6ccc[nH]6)C=CC4=C5)cc3C2=O)CC1` [NAN-190-2-NB590]: for the setting “CNR2, tracer 0.1μM”, the “NanoBRET Fold Response” value stood at 0.81.

In the case of `O=C(CCc1ccc2n1[B-](F)(F)[N+]1=C(c3ccc[nH]3)C=CC1=C2)NCc1ccc(C(=O)NCCOCCOCCNCC(O)COc2cccc3ccccc23)cc1` (centres unmarked) [Propranolol-3-NB590], the “NanoBRET Fold Response” value reads like this: (CNR2, 0.1μM) 0.95; (CNR2, 1μM) 1.01.

For `COc1ccccc1N1CCN(CCCCN2C(=O)c3ccc(CNC(=O)CCOCCNC(=O)c4ccc(CNC(=O)CCc5ccc6n5[B-](F)(F)[N+]5=C(c7ccc[nH]7)C=CC5=C6)cc4)cc3C2=O)CC1` [NAN-190-3-NB590], the “NanoBRET Fold Response” value is 1.09 (CNR2, tracer 0.1μM) and 1.15 (CNR2, tracer 1μM).

As to `O=C(CCc1ccc2n1[B-](F)(F)[N+]1=C(c3ccc[nH]3)C=CC1=C2)NCc1ccc(C(=O)NCCOCCC(=O)N[C@@H]2CC[C@@]3(O)[C@H]4Cc5ccc(O)c6c5[C@@]3(CCN4CC3CC3)[C@H]2O6)cc1` [Naltrexone-3-NB590], the “NanoBRET Fold Response” value runs as follows: (CNR2, tracer 0.1μM) 0.92; (CNR2, tracer 1μM) 0.91.

As for `CCOC(=O)c1cc(C#N)c(N2CCC(C(=O)NS(=O)(=O)Cc3ccccc3/C=C/C(=O)NCCNC(=O)CCc3ccc4n3[B-](F)(F)[N+]3=C(c5ccc[nH]5)C=CC3=C4)CC2)nc1C` [AZD1283-1-NB590], the “NanoBRET Fold Response” value runs as follows: (CNR2, 0.1μM) 1.04; (CNR2, 1μM) 0.91.

Regarding `COc1ccc2[nH]c(-c3ccc(CNC(=O)CCOCCOCCOCCOCCNC(=O)CCc4ccc5n4[B-](F)(F)[N+]4=C(c6ccc[nH]6)C=CC4=C5)cc3)c(CCNC(C)=O)c2n1` [AzomelatoninICO9-2-NB590], the “NanoBRET Fold Response” value is listed as 0.97 (0.1μM tracer) and 1.06 (1μM tracer).

On to `CC(C)N(CC[C@H](c1ccccc1)c1cc(CCNC(=O)CCOCCOCCOCCOCCNC(=O)CCc2ccc3n2[B-](F)(F)[N+]2=C(c4ccc[nH]4)C=CC2=C3)ccc1O)C(C)C` [Tolterodine-2-NB590], for which the “NanoBRET Fold Response” value (CNR2, tracer 0.1μM) stood at 0.94 and the “NanoBRET Fold Response” value (CNR2, tracer 1μM) amounted to 1.11.

Turning to `CN1CCN(C2=Nc3cc(Cl)ccc3N(CC(=O)NCCOCCOCCOCCOCCNC(=O)CCc3ccc4n3[B-](F)(F)[N+]3=C(c5ccc[nH]5)C=CC3=C4)c3ccccc32)CC1` [Clozapine-c-2-NB590], the “NanoBRET Fold Response” value was determined as 0.96 (CNR2, 0.1μM tracer) and 1.13 (CNR2, 1μM tracer).

As for `N#CN=C(NCCCOc1cccc(CN2CCCCC2)c1)NCCNC(=O)CCOCCOCCOCCOCCNC(=O)CCc1ccc2n1[B-](F)(F)[N+]1=C(c3ccc[nH]3)C=CC1=C2` [Aminopotentidine-2-NB590], the “NanoBRET Fold Response” value (CNR2, tracer 0.1μM) amounted to 1.00 and the “NanoBRET Fold Response” value (CNR2, tracer 1μM) came to 1.16.

As for `COc1ccc2c(n1)c(CCNC(C)=O)cn2CCNC(=O)CCc1ccc2n1[B-](F)(F)[N+]1=C(c3ccc[nH]3)C=CC1=C2` [Azamelatonin-1-NB590], the “NanoBRET Fold Response” value is given as 0.98 (0.1μM tracer) and 1.01 (1μM tracer).

In the case of `CC(C)N(CC[C@H](c1ccccc1)c1cc(CCNC(=O)c2ccc(CNC(=O)CCc3ccc4n3[B-](F)(F)[N+]3=C(c5ccc[nH]5)C=CC3=C4)cc2)ccc1O)C(C)C` [Tolterodine-BZ-NB590], the “NanoBRET Fold Response” value (CNR2, tracer 1μM) amounted to 0.25.

In the case of `O=C(CCc1ccc2n1[B-](F)(F)[N+]1=C(c3ccc[nH]3)C=CC1=C2)NCCOCCOCCNC(=O)OCCOCCN1CCN(C2=Nc3ccccc3Sc3ccccc32)CC1` [Quetiapine-a-2-NB590], the “NanoBRET Fold Response” value (CNR2, tracer 0.1μM) is recorded as 1.07 and the “NanoBRET Fold Response” value (CNR2, tracer 1μM) is given as 1.29.

Consider `Cc1cc2c(s1)Nc1ccccc1N=C2N1CCN(CCCNC(=O)CCOCCOCCOCCOCCNC(=O)CCc2ccc3n2[B-](F)(F)[N+]2=C(c4ccc[nH]4)C=CC2=C3)CC1` [Olanzapine-a-2-NB590], for which the “NanoBRET Fold Response” value (CNR2, tracer 0.1μM) is 0.23 and the “NanoBRET Fold Response” value (CNR2, tracer 1μM) is 1.06.

`CN(C)CCC=C1c2ccccc2CCc2ccc(C(=O)NCCNC(=O)CCOCCOCCOCCOCCNC(=O)CCc3ccc4n3[B-](F)(F)[N+]3=C(c5ccc[nH]5)C=CC3=C4)cc21` [Amitriptyline-b-2-NB590]: the “NanoBRET Fold Response” value runs as follows: (CNR2, tracer 0.1μM) 0.96; (CNR2, tracer 1μM) 1.05.

As for `O=C(CCOCCOCCOCCOCCNC(=O)CCc1ccc2n1[B-](F)(F)[N+]1=C(c3ccc[nH]3)C=CC1=C2)NCCCN1CCN(C2=Nc3cc(Cl)ccc3Nc3ccccc32)CC1` [Clozapine-a-2-NB590], the “NanoBRET Fold Response” value was found to be 1.06 (CNR2, 0.1μM tracer) and 1.19 (CNR2, 1μM tracer).

`CN1CCN(C2=Nc3cc(Cl)ccc3Nc3ccc(CNC(=O)CCOCCOCCOCCOCCNC(=O)CCc4ccc5n4[B-](F)(F)[N+]4=C(c6ccc[nH]6)C=CC4=C5)cc32)CC1` [Clozapine-b-2-NB590]: the “NanoBRET Fold Response” value (CNR2, 0.1μM tracer) came out at 1.05.

Consider `Cc1nc2n(c(=O)c1CCN1CCC(c3noc4cc(F)ccc34)CC1)CCCC2OC(=O)NCCOCCOCCOCCOCCNC(=O)CCc1ccc2n1[B-](F)(F)[N+]1=C(c3ccc[nH]3)C=CC1=C2` (centres unmarked) [Risperidone-2-NB590], for which the “NanoBRET Fold Response” value (CNR2, tracer 0.1μM) is on record as 1.04 and the “NanoBRET Fold Response” value (CNR2, tracer 1μM) came to 1.12.

(Values after article PMC8151276, “An Integrated Approach toward NanoBRET Tracers for Analysis of GPCR Ligand Engagement” (Molecules, 2021).)
